Data on 16 molecules can be found in patent US20260241012A1, “1,8-NAPHTHYRIDIN-2-ONE HETEROBIFUNCTIONAL BCL6 DEGRADERS” (Treeline Biosciences, Inc., priority 2022, published 2026).

The target of the assay is T1, N-terminal HiBiT tagged BCL6 (Homo sapiens, UniProt P41182).
T1 construct: expressed in transfected cells; host or cells: HT1080 (ATCC CCL-121), stably transduced with lentivirus pLV-UBC-N-HiBiT-BCL6-PGK-puro
The assay can be described thus: HiBiT based degradation assay. Particulars: HT1080 cells expressing N-terminal HiBiT tagged BCL6, 5 hours of incubation; for Ymin (5 hr): BCL6 degradation normalized with DMSO control; for DC50: four-parameter logistic model, read-out: EC50 (5 hr). Type of assay: cell-based. The method in brief:
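Degradation measured by luminescence from the Nano-Glo HiBiT lytic reagent (15 min, room temperature), normalized to DMSO controls and fitted to a four-parameter curve.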

Take `CNC(=O)COc1cc2cc(Nc3cc(N4CCC(CN5CCN(c6cccc7c(C8CCC(=O)NC8=O)nn(C)c67)[C@H](C)C5)CC4)ncc3Cl)cnc2n(C(C)C)c1=O` (stereo partly drawn) [Compound 217a, 2-[[6-[[5-chloro-2-[4-[[(3R)-4-[3-(2,6-dioxo-3-piperidyl)-1-methyl-indazol-7-yl]-3-methyl-piperazin-1-yl]methyl]-1-piperidyl]-4-pyridyl]amino]-1-isopropyl-2-oxo-1,8-naphthyridin-3-yl]oxy]-N-methyl-acetamide]: the “Ymin (5 hr)” value is listed as “++++ (Ymin < 30%)” and the DC50 is 10 to 100 nM.
Taken in the same sequence, the figures for `CNC(=O)COc1cc2cc(Nc3cc(N4CCC(CN5CCN(c6cccc7c(C8CCC(=O)NC8=O)nn(C)c67)[C@@H](C)C5)CC4)ncc3Cl)cnc2n(C(C)C)c1=O` (stereo partly drawn) [Compound 217b, 2-[[6-[[5-chloro-2-[4-[[(3S)-4-[3-(2,6-dioxo-3-piperidyl)-1-methyl-indazol-7-yl]-3-methyl-piperazin-1-yl]methyl]-1-piperidyl]-4-pyridyl]amino]-1-isopropyl-2-oxo-1,8-naphthyridin-3-yl]oxy]-N-methyl-acetamide] were “+ (Ymin ≥ 70%)” and not below 1000 nM.
On to `CNC(=O)COc1cc2cc(Nc3nc(N4CC[C@@H](CN5CCN(c6ccc7c(C8CCC(=O)NC8=O)nn(C)c7c6)CC5)C4)ncc3Cl)cnc2n(C(C)C)c1=O` (stereo partly drawn) [Compound 218a, 2-[[6-[[5-chloro-2-[(3S)-3-[[4-[3-(2,6-dioxo-3-piperidyl)-1-methyl-indazol-6-yl]piperazin-1-yl]methyl]pyrrolidin-1-yl]pyrimidin-4-yl]amino]-1-isopropyl-2-oxo-1,8-naphthyridin-3-yl]oxy]-N-methyl-acetamide], for which the “Ymin (5 hr)” value was “+++ (30% ≤ Ymin < 50%)” and the DC50 is less than 10 nM.
Taken in the same sequence, the figures for `CNC(=O)COc1cc2cc(Nc3nc(N4CC[C@H](CN5CCN(c6ccc7c(C8CCC(=O)NC8=O)nn(C)c7c6)CC5)C4)ncc3Cl)cnc2n(C(C)C)c1=O` (stereo partly drawn) [Compound 218b, 2-[[6-[[5-chloro-2-[(3R)-3-[[4-[3-(2,6-dioxo-3-piperidyl)-1-methyl-indazol-6-yl]piperazin-1-yl]methyl]pyrrolidin-1-yl]pyrimidin-4-yl]amino]-1-isopropyl-2-oxo-1,8-naphthyridin-3-yl]oxy]-N-methyl-acetamide] were “+++ (30% ≤ Ymin < 50%)” and less than 10 nM.
As for `CNC(=O)COc1cc2cc(Nc3nc(N4CCN(C(=O)N5CCN(c6ccc7c(C8CCC(=O)NC8=O)nn(C)c7c6)CC5)CC4)ncc3Cl)cnc2n(C(C)C)c1=O` (centres unmarked) [Compound 219, 2-[[6-[[5-chloro-2-[4-[4-[3-(2,6-dioxo-3-piperidyl)-1-methyl-indazol-6-yl]piperazine-1-carbonyl]piperazin-1-yl]pyrimidin-4-yl]amino]-1-isopropyl-2-oxo-1,8-naphthyridin-3-yl]oxy]-N-methyl-acetamide], the “Ymin (5 hr)” value was “+++ (30% ≤ Ymin < 50%)” and the DC50 was less than 10 nM.
As for `CNC(=O)COc1cc2cc(Nc3nc(N4CCN(C(=O)N5CCC(c6ccc7c(C8CCC(=O)NC8=O)nn(C)c7c6)CC5)CC4)ncc3Cl)cnc2n(C(C)C)c1=O` (centres unmarked) [Compound 220, 2-[[6-[[5-chloro-2-[4-[4-[3-(2,6-dioxo-3-piperidyl)-1-methyl-indazol-6-yl]piperidine-1-carbonyl]piperazin-1-yl]pyrimidin-4-yl]amino]-1-isopropyl-2-oxo-1,8-naphthyridin-3-yl]oxy]-N-methyl-acetamide], the “Ymin (5 hr)” value is listed as “+++ (30% ≤ Ymin < 50%)” and the DC50 was less than 10 nM.
As for `CNC(=O)COc1cc2cc(Nc3nc(N4CC5(CCC(Nc6c(F)ccc7c(C8CCC(=O)NC8=O)nn(C)c67)CC5)C4)ncc3Cl)cnc2n(C(C)C)c1=O` (centres unmarked) [Compound 222, 2-[[6-[[5-chloro-2-[7-[[3-(2,6-dioxo-3-piperidyl)-6-fluoro-1-methyl-indazol-7-yl]amino]-2-azaspiro[3.5]nonan-2-yl]pyrimidin-4-yl]amino]-1-isopropyl-2-oxo-1,8-naphthyridin-3-yl]oxy]-N-methyl-acetamide], the “Ymin (5 hr)” value is given as “++ (50% ≤ Ymin < 70%)” and the DC50 was in the range of 10 to 100 nM.
In the case of `CNC(=O)COc1cc2cc(Nc3nc(N4CCN(C(=O)N5CCN(c6cccc7c(C8CCC(=O)NC8=O)nn(C)c67)CC5)CC4)ncc3Cl)cnc2n(C(C)C)c1=O` (centres unmarked) [Compound 223, 2-[[6-[[5-chloro-2-[4-[4-[3-(2,6-dioxo-3-piperidyl)-1-methyl-indazol-7-yl]piperazine-1-carbonyl]piperazin-1-yl]pyrimidin-4-yl]amino]-1-isopropyl-2-oxo-1,8-naphthyridin-3-yl]oxy]-N-methyl-acetamide], the “Ymin (5 hr)” value is “++++ (Ymin < 30%)” and the DC50 is less than 10 nM.
Turning to `CNC(=O)COc1cc2cc(Nc3nc(N4CCN(C(=O)N5CCC(c6cccc7c(C8CCC(=O)NC8=O)nn(C)c67)CC5)CC4)ncc3Cl)cnc2n(C(C)C)c1=O` (centres unmarked) [Compound 224, 2-[[6-[[5-chloro-2-[4-[4-[3-(2,6-dioxo-3-piperidyl)-1-methyl-indazol-7-yl]piperidine-1-carbonyl]piperazin-1-yl]pyrimidin-4-yl]amino]-1-isopropyl-2-oxo-1,8-naphthyridin-3-yl]oxy]-N-methyl-acetamide], the “Ymin (5 hr)” value is listed as “+++ (30% ≤ Ymin < 50%)” and the DC50 was less than 10 nM.
`CNC(=O)COc1cc2cc(Nc3nc(N4CCC(OC5CCN(c6cccc7c(C8CCC(=O)NC8=O)nn(C)c67)CC5)CC4)ncc3Cl)cnc2n(C(C)C)c1=O` (centres unmarked) [Compound 225, 2-[[6-[[5-chloro-2-[4-[[1-[3-(2,6-dioxo-3-piperidyl)-1-methyl-indazol-7-yl]-4-piperidyl]oxy]-1-piperidyl]pyrimidin-4-yl]amino]-1-isopropyl-2-oxo-1,8-naphthyridin-3-yl]oxy]-N-methyl-acetamide]: the “Ymin (5 hr)” value is “++++ (Ymin < 30%)” and the DC50 was in the range of 10 to 100 nM.
For `CNC(=O)COc1cc2cc(Nc3nc(N4CCC(O[C@H]5C[C@H](N6CCN(c7ccc8c(C9CCC(=O)NC9=O)nn(C)c8c7)CC6)C5)CC4)ncc3Cl)cnc2n(C(C)C)c1=O` (some centres unmarked) [Compound 226a, 2-((6-((5-chloro-2-(4-((1r,3r)-3-(4-(3-(2,6-dioxopiperidin-3-yl)-1-methyl-1H-indazol-6-yl)piperazin-1-yl)cyclobutoxy)piperidin-1-yl)pyrimidin-4-yl)amino)-1-isopropyl-2-oxo-1,2-dihydro-1,8-naphthyridin-3-yl)oxy)-N-methylacetamide], in that order: “+++ (30% ≤ Ymin < 50%)” and less than 10 nM.
As to `CNC(=O)COc1cc2cc(Nc3nc(N4CCN([C@H]5C[C@H](OC6CCN(c7ccc8c(C9CCC(=O)NC9=O)nn(C)c8c7)CC6)C5)CC4)ncc3Cl)cnc2n(C(C)C)c1=O` (some centres unmarked) [Compound 227a, 2-((6-((5-chloro-2-(4-((1r,3r)-3-((1-(3-(2,6-dioxopiperidin-3-yl)-1-methyl-1H-indazol-6-yl)piperidin-4-yl)oxy)cyclobutyl)piperazin-1-yl)pyrimidin-4-yl)amino)-1-isopropyl-2-oxo-1,2-dihydro-1,8-naphthyridin-3-yl)oxy)-N-methylacetamide], the “Ymin (5 hr)” value is on record as “++ (50% ≤ Ymin < 70%)” and the DC50 is less than 10 nM.
As to `CNC(=O)COc1cc2cc(Nc3nc(N4CCN(C[C@@H]5CCN(c6ccc7c(C8CCC(=O)NC8=O)nn(C)c7c6)C5)CC4)ncc3Cl)cnc2n(C(C)C)c1=O` (stereo partly drawn) [Compound 228a, 2-[[6-[[5-chloro-2-[4-[[(3S)-1-[3-(2,6-dioxo-3-piperidyl)-1-methyl-indazol-6-yl]pyrrolidin-3-yl]methyl]piperazin-1-yl]pyrimidin-4-yl]amino]-1-isopropyl-2-oxo-1,8-naphthyridin-3-yl]oxy]-N-methyl-acetamide], the “Ymin (5 hr)” value is recorded as “+++ (30% ≤ Ymin < 50%)” and the DC50 was less than 10 nM.
As for `CNC(=O)COc1cc2cc(Nc3nc(N4CCN(C[C@H]5CCN(c6ccc7c(C8CCC(=O)NC8=O)nn(C)c7c6)C5)CC4)ncc3Cl)cnc2n(C(C)C)c1=O` (stereo partly drawn) [Compound 228b, 2-((6-((5-chloro-2-(4-(((3R)-1-(3-(2,6-dioxopiperidin-3-yl)-1-methyl-1H-indazol-6-yl)pyrrolidin-3-yl)methyl)piperazin-1-yl)pyrimidin-4-yl)amino)-1-isopropyl-2-oxo-1,2-dihydro-1,8-naphthyridin-3-yl)oxy)-N-methylacetamide], the “Ymin (5 hr)” value is “++ (50% ≤ Ymin < 70%)” and the DC50 is 10 to 100 nM.
For `CNC(=O)COc1cc2cc(Nc3nc(N4CCC5(CC4)CC(N4CCN(c6ccc7c(C8CCC(=O)NC8=O)nn(C)c7c6)CC4)C5)ncc3Cl)cnc2n(C(C)C)c1=O` (centres unmarked) [Compound 229, 2-[[6-[[5-chloro-2-[2-[4-[3-(2,6-dioxo-3-piperidyl)-1-methyl-indazol-6-yl]piperazin-1-yl]-7-azaspiro[3.5]nonan-7-yl]pyrimidin-4-yl]amino]-1-isopropyl-2-oxo-1,8-naphthyridin-3-yl]oxy]-N-methyl-acetamide], the “Ymin (5 hr)” value was “++++ (Ymin < 30%)” and the DC50 is less than 10 nM.
Regarding `CNC(=O)COc1cc2cc(Nc3nc(N4CCC5(CC4)CC(N4CCN(c6cccc7c(C8CCC(=O)NC8=O)nn(C)c67)CC4)C5)ncc3Cl)cnc2n(C(C)C)c1=O` (centres unmarked) [Compound 230, 2-[[6-[[5-chloro-2-[2-[4-[3-(2,6-dioxo-3-piperidyl)-1-methyl-indazol-7-yl]piperazin-1-yl]-7-azaspiro [3.5]nonan-7-yl]pyrimidin-4-yl]amino]-1-isopropyl-2-oxo-1,8-naphthyridin-3-yl]oxy]-N-methyl-acetamide], the “Ymin (5 hr)” value is given as “+++ (30% ≤ Ymin < 50%)” and the DC50 lay within 10 to 100 nM.
